This assay relates to heparanase. In words: Plasma heparanase activity, human plasma, peptide added ex vivo. The assay is classed as biochemical. Conditions: 20 μg/ml peptide ex vivo, Fig 3B. On the procedure:
As described before, we used plasma from 18 adult individuals within 24 hours after presentation with septic shock, according to the ACCP/SCCM definition after written informed consent of patients or their legal representative. Individuals below 18 years were excluded. Furthermore, we used plasma from healthy human donors after written informed consent (n = 10). No personal or identifying information was collected from study participants. All samples are stored in the RWTH centralized Biomaterial Database (RWTH cBMB) of the University Hospital RWTH Aachen. The local ethics committee (University Hospital RWTH Aachen, EK 206_09) approved this study before inclusion of the first individual.
Heparanase activity in human and murine plasma was quantified using the commercial available Heparanase Assay Kit (No.: Ra001-BE-K, AMS Biotechnology, Oxon, United Kingdom) according to the manufacturer’s instructions.

Consider “peptide 19–2.5: synthetic antimicrobial peptide 19–2.5 belongs to the class of synthetic anti-lipopolysaccharide peptides (SALP = synthetic anti-LPS peptides)”, for which the “plasma heparanase activity after ex vivo addition of peptide” value runs as follows: (plasma of healthy humans (n = 10), n.s.) “did not alter heparanase activity”; (plasma of septic shock patients (n = 18)) “significantly lowered heparanase activity”.
